In patent US10444228B2, “Method of screening a candidate compound for inducing bile canalicular function disorders” (Biopredic International, priority 2014, dated 2019):

What was measured:
Type in all cases: cell-based, human
Rho-kinase = Rho-kinase activity (Merck-Millipore kit) in treated cell lysates; settings: differentiated HepaRG cells, 2 h, 1-50 μM
Protocol: Differentiated HepaRG cells were exposed to increased doses of CPZ (from 1-50 μM) for 2 h and Rho-kinase activity was measured (kit Merck-Millipore) according to manufacturer. Untreated cells and cells exposed to the Rho-kinase inhibitor Y27632 (10 μM) were used for controls.

ZO-1 = experiment: Immunolocalization of junctional protein ZO-1; settings: treated HepaRG cultures
[1] = system: differentiated HepaRG cells (bile canalicular lumen); experiment: Bile canaliculi lumen morphology by F-actin (phalloidin) / CDFDA imaging; settings: for change of bile canaliculus lumen (constriction or swelling): Example 1, 2 h exposure, F-actin phalloidin staining; for change of bile canaliculus lumen (constriction or swelling) / change of biliary lumen (constriction or swelling): differentiated HepaRG cells; for induction of cholestasis (phenotype with swollen lumen) / change of biliary lumen (constriction or swelling): Example 2; for induction of cholestasis (phenotype with swollen lumen): HepaRG cells; for change of biliary lumen (constriction or swelling): F-actin phalloidin and CDFDA staining
Protocol: Two week DMSO-treated HepaRG cultures were exposed to 50 μM CPZ for 2 h and analyzed at different times during exposure. Constriction was evidenced by F-actin staining using phalloidin.
Comparison of the cytoskeleton organization of control cells versus CPZ and Y27632 treated cultures for 2 h. Fibers of F-actin accumulated at the biliary were labelling by phalloidin and counterstaining of nuclei was performed by Hoechst staining.
ii)—Analysis of the F-actin organization and biliary lumen changes using phalloidin and fluorescent CDFDA staining. After exposure to the candidate compounds, cells were washed twice, fixed with Paraformaldehyde (4%) fixative for 20 min, washed and stained with phalloidin for 10 min. For CDFDA staining, details are provided below.
Images obtained on microscope were used for calculating the size of the biliary lumen after treatment. Appropriate algorithm has been developed for quantification using Cellomics equipment.

[2] = system: phosphorylated myosin light chain (P-MYL9); experiment: Western blotting of phosphorylated myosin light chain; settings: for P-myosin (P-MYL9) level by western blotting: Example 2, after 1 hour
Protocol: Accumulation of phosphorylated light chain myosin was evidenced by western blotting technique in using the (P)-MYl2 antibody. Control cells, 2h-CPZ treated cells and 2h-y27632-treated cells were compared. Cell lysates were prepared.
Accumulation of the phosphorylated myosin light chain was performed by western blotting using p-Myl antibody.

[3] = system: differentiated HepaRG cells (canalicular clearance); experiment: Biliary clearance activity with CDFDA marker compound; settings: versus control cells
Protocol: The first step was incubation with the marker compound. CDFDA was preferentially used. After washing, differentiated cells plated in wells from 24 well-plates, were washed with HBSS buffer twice and incubated with 250 μl of CDFDA solution prepared at the final concentration of 3 μM in HBSS buffer containing Ca++ buffer (pH 7.4). After 30 min cells were washed with the same buffer. […] Quantification of the fluorescent dye into the medium is performed. A comparative evolution was established between control (untreated) and CPZ- and EF-treated cells. […] Calculation of the amount of released fluorescent dye molecules was performed by spectrometry and the canalicular clearance efficiency (CCE) was determined per time unit.

[4] = system: HepaRG cells (canalicular efflux); experiment: Efflux of [3H]-taurocholate
Protocol: Efflux of Taurocholate (TA). Cells were first exposed to [3H]-TA for 30 min, then washed with PBS and incubated with or without CPZ at different time points (from 0 to 6 hours) in a standard buffer with Ca2+ and Mg2+. After the incubation time, cells were washed with PBS and incubated for 5 min with a Ca2+ and Mg2+− free buffer in order to disrupt the canalicular tight junctions. Then they were scraped in 0.1 N NaOH; the remaining radiolabeled substrate was measured through scintillation counting to determinate TA efflux. To discriminate between basolateral and canalicular efflux, cells were incubated in parallel in either standard or Ca2+ and Mg2+-free buffer for 30 minutes after TA uptake before measuring the remaining radiolabeled TA. Canalicular efflux was calculated using this equation: Canalicular efflux: Radioactivity in efflux mediumCa2+ and Mg2+ free buffer—Radioactivity in efflux medium Standard buffer. Differentiated cells were exposed or not to CPZ (50 μM for 2 h) before radiolabelled TA addition.

[5] = system: differentiated HepaRG cells (canalicular clearance); experiment: Biliary clearance with Rhodamin 123 marker compound
Protocol: Another assay was performed with Rhodamin 123 as marker compound.

HepaRG cells = experiment: Accumulation of labelled taurocholate in cells including canaliculi space; settings: increased concentrations, compared to control
Text: The data also provides information related to junctional complex organization and the role of metalloproteinases in controlling permeability.

S=C=Nc1cccc2ccccc12 [ANIT]
Rho-kinase activity (Rho-kinase): activate the Rho-kinase activity
distribution of ZO-1 at the biliary pole (ZO-1): appears normal
change of bile canaliculus lumen (constriction or swelling) [1]: inducing lumen constriction
induction of cholestasis (phenotype with swollen lumen) [1]: inducing cholestasis
change of biliary lumen (constriction or swelling) [1]: relaxation/swelling

CC(=O)/C(C)=N/O [BDM]
P-myosin (P-MYL9) level by western blotting [2]: inhibition of P-myosin phosphorylation

CN(C)CCCN1c2ccccc2Sc2ccc(Cl)cc21 [CPZ, chlorpromazine]
Rho-kinase activity (Rho-kinase): dose-dependent activation of Rho-kinase
clearance of CDFDA dye out of the canalicular space [3]: delay in the clearance of dye
clearance of CDFDA dye out of the canalicular space ([3]; listed as chlorpromazine): delay of clearance
distribution of ZO-1 at the biliary pole (ZO-1): appears normal
change of bile canaliculus lumen (constriction or swelling) [1]: Constriction of canaliculus lumen
change of bile canaliculus lumen (constriction or swelling) ([1]; listed as chlorpromazine): constriction of the canaliculus lumen
change of biliary lumen (constriction or swelling) [1]: lumen constriction
change of biliary lumen (constriction or swelling) ([1]; listed as chlorpromazine): abnormal and permanent lumen constriction
taurocholate efflux ([4]; CPZ 50 μM): decrease of taurocholate efflux
myosin-light chain phosphorylation (immunoblotting) ([2]; Example 1, 2 h treated HepaRG cells): accumulation of myosin-light chain phosphorylation
P-myosin (P-MYL9) level by western blotting [2]: accumulation of P-myosin
clearance of Rhodamin 123 dye [5]: delay

C[C@H](CCC(=O)O)[C@H]1CC[C@H]2[C@@H]3CC[C@@H]4C[C@H](O)CC[C@]4(C)[C@H]3C[C@H](O)[C@]12C [DCA, Deoxycholic acid]
induction of cholestasis (phenotype with swollen lumen) [1]: inducing cholestasis

O=S(=O)(c1cccc2cnccc12)N1CCCNCC1 [Fasudil]
distribution of ZO-1 at the biliary pole (ZO-1): appears normal
induction of cholestasis (phenotype with swollen lumen) [1]: inducing cholestasis
change of biliary lumen (constriction or swelling) [1]: relaxation/swelling
accumulation of labelled taurocholate in cells including canaliculi space (HepaRG cells): abnormal accumulation of labelled taurocholate
accumulation of labelled taurocholate in cells including canaliculi space (HepaRG cells; listed as fasudil): highest values

C=CC[C@@H]1/C=C(\C)C[C@H](C)C[C@H](OC)[C@H]2O[C@@](O)(C(=O)C(=O)N3CCCC[C@H]3C(=O)O[C@H](/C(C)=C/[C@@H]3CC[C@@H](O)[C@H](OC)C3)[C@H](C)[C@@H](O)CC1=O)[C@H](C)C[C@@H]2OC [Fk, Tacrolimus]
Rho-kinase activity (Rho-kinase): activate the Rho-kinase activity
change of bile canaliculus lumen (constriction or swelling) [1]: inducing lumen constriction

C[C@@H](N)[C@H]1CC[C@H](C(=O)Nc2ccncc2)CC1 [Y27632]
clearance of CDFDA dye out of the canalicular space [3]: delay in biliary clearance
clearance of CDFDA dye out of the canalicular space ([3]; listed as EF): delay in the clearance of dye
change of bile canaliculus lumen (constriction or swelling) [1]: swelling/relaxation
change of biliary lumen (constriction or swelling) [1]: swelling
taurocholate efflux with Rho-kinase inhibitor added to CPZ ([4]; in presence of CPZ): recovery of taurocholate efflux activity
P-myosin (P-MYL9) level by western blotting [2]: inhibition of P-myosin phosphorylation
clearance of Rhodamin 123 dye [5]: delay
accumulation of labelled taurocholate in cells including canaliculi space (HepaRG cells): abnormal accumulation of labelled taurocholate

COc1ccccc1Oc1c(NS(=O)(=O)c2ccc(C(C)(C)C)cc2)nc(-c2ncccn2)nc1OCCO [bosentan]
change of biliary lumen (constriction or swelling) [1]: abnormal and prolonged canalicular lumen swelling

Cyclosporin A [CsA]
Rho-kinase activity (Rho-kinase): activate the Rho-kinase activity
change of bile canaliculus lumen (constriction or swelling) [1]: inducing lumen constriction
change of biliary lumen (constriction or swelling) [1]: lumen constriction
change of biliary lumen (constriction or swelling) ([1]; listed as cyclosporine A): constriction
P-myosin (P-MYL9) level by western blotting [2]: accumulation of P-myosin
